Data taken from the NIST ThermoML archive (doi:10.1021/je0502501).
± gives the expanded uncertainty stated by the source.

Assay: wn = mass fraction of the nth substance listed
Settings: 313 K, 101 kPa, Liquid, Vibrating tube method

Work on `CCCCn1cc[n+](C)c1.F[P-](F)(F)(F)(F)F` [1-butyl-3-methylimidazolium hexafluorophosphate] + O yielded a mass density (w2 = 6.7e-05) of 1358.7 ± 3.6 kg/m3, a mass density (w2 = 0.0015) of 1357.6 ± 3.6 kg/m3 and a mass density (w2 = 0.0089) of 1347.3 ± 3.6 kg/m3. For the same molecule, the mass density (w2 = 0.016) was 1335.5 ± 3.5 kg/m3.
